Measurements published in patent publication US5254533A, “Elfamycin” (Rhone-Poulenc Rorer S.A., priority 1990, dated 1993).

What was measured:
Assay in all cases: MIC, antibacterial activity (agar dilution)
Type in all cases: cell-based
[1] = tested on: Pseudomonas aeruginosa IP A 237; details: IPA237, Mueller Hinton Agar, about 18 h at about 37° C
[2] = tested on: Enterobacter cloacae IP 085; details: IP085, Mueller Hinton Agar, about 18 h at about 37° C
[3] = tested on: Klebsiella pneumoniae Caroli; details: Mueller Hinton Agar, about 18 h at about 37° C
[4] = tested on: Bacteroides fragilis 479R; details: anaerobic, Mueller Hinton Agar + 2% Fildes, about 48 h at about 37° C
[5] = tested on: Escherichia coli INRA ECi; details: Mueller Hinton Agar, about 18 h at about 37° C
[6] = tested on: Staphylococcus aureus S tA 2; details: STA2, Mueller Hinton Agar, about 18 h at about 37° C
Streptococcus bovis 5 = details: Streptococcus equinus, Mueller Hinton Agar, about 18 h at about 37° C

C/C=C\C=C\C1OC(O)(C(CC)C(=O)NC/C=C/C=C(\C)C(OC)C(C)C2CC(O)C(/C=C/C=C/C=C/C(=O)O)O2)C(O)C(O)C1(C)C (stereo not shown) [formula (II)]
MIC [1]: > 300 µg/mL
MIC [2]: > 300 µg/mL
MIC [3]: > 300 µg/mL
MIC [4]: > 100 µg/mL
MIC [5]: > 300 µg/mL
MIC [6]: > 300 µg/mL
MIC (Streptococcus bovis 5): 25 µg/mL
